Reference: US10660910B2, “Use of sedoheptulose for prevention or treatment of inflammation” (C7 SUGAR GMBH, priority 2013, dated 2020)

Legend:
Format in all cases: cell-based, mouse
[1] = test system: Glucose-6-phosphate dehydrogenase (G6PD) in hepatocytes; assay: Glucose-6-phosphate dehydrogenase activity assay (enzyme histochemistry) in hepatocytes; settings: WT cells incubated in cell culture media with sedoheptulose; compared with phenotype of CARKL overexpressing cells; data not shown
Method: Hepatocytes were isolated from male wild-type and CARKL overexpressing mice after the mice were sacrificed by hepatic in situ collagenase perfusion. After perfusion, the liver was quickly removed, minced, and filtered through a cell strainer (Fisher Scientific, Inc) into a 50 ml sterile tube. Hepatocytes in the resulting filtrate were purified from the nonparenchymal cells by centrifugation steps. The isolated hepatocytes were seeded into plates at a concentration of 0.25×10^6/ml in respective DMEM-media containing 10% FBS and indicated carbohydrate mixes at 3 g/L (glucose and fructose (GF), or glucose, fructose and sedoheptulose (GFS)) at least two days before experiments were performed. Cells were grown on polystyrene vessel tissue culture treated glass slides, snap frozen in liquid nitrogen and kept at −80° C. The enzyme histochemical procedure was based on the tetrazolium salt method as described by Van Noorden and Frederiks. […] The medium was freshly prepared immediately before incubation. Control reactions additionally contained 40 mM glucosamine-6-phosphate. Cells were incubated at room temperature for 15 minutes under continuous mixing by orbital shaker. After incubation, cells were washed 3×5 minutes in […] phosphate buffered saline, dried, and mounted in glycerol gelatin, and photographed within one day at ×10 magnification.

[2] = test system: LPS-induced activated primary macrophages; assay: LPS-induced cytokine secretion by bone marrow derived macrophages (ELISA); settings: LPS 100 ng/ml, GFS vs GF media
Method: FIG. 3: (A-E) Primary human adipocytes were obtained by differentiation of the stromal vascular cell fraction in the presence of glucose and fructose (GF, 1.5 g/L of each sugar; total carbohydrates 3 g/L) or sedoheptulose supplemented media, which was termed GFS (1 g/L of each sugar; total carbohydrates 3 g/L), for eight days. Subsequently mRNA levels of (A) CARKL, (B) adiponectin and (C) uncoupling protein 1 (UCP-1) was assessed by RT-PCR and compared between the groups. (D) Cellular oxygen consumption rates (OCR) and (E) extracellular acidification rates (ECAR) of adipocytes were recorded in the presence of indicated carbohydrate-mix (mean+/−S.D., n=9-11). […] Secretion of (K) TNFa and (L) IL-6 cytokines over the period of two days was measured by ELISA in the supernatant of bone marrow derived macrophages. LPS-induced (100 ng/ml) secretion of (M) TNFa 2 hrs after activation and (N) IL-6 6 hrs after activation in the respective media by macrophages was also measured by ELISA. […]

[3] = test system: primary bone marrow derived macrophages; assay: Bone marrow derived macrophages, basal cytokine mRNA (RT-PCR) and secretion (ELISA)
Method: FIG. 3: (A-E) Primary human adipocytes were obtained by differentiation of the stromal vascular cell fraction in the presence of glucose and fructose (GF, 1.5 g/L of each sugar; total carbohydrates 3 g/L) or sedoheptulose supplemented media, which was termed GFS (1 g/L of each sugar; total carbohydrates 3 g/L), for eight days. Subsequently mRNA levels of (A) CARKL, (B) adiponectin and (C) uncoupling protein 1 (UCP-1) was assessed by RT-PCR and compared between the groups. (D) Cellular oxygen consumption rates (OCR) and (E) extracellular acidification rates (ECAR) of adipocytes were recorded in the presence of indicated carbohydrate-mix (mean+/−S.D., n=9-11). (F) Tumor necrosis factor alpha (TNFa) and (G) interleukin 6 (IL-6) mRNA expression levels of mature murine adipocytes cultivated for three days in cell culture media containing either GF or GFS carbohydrate mix, or (H) IL-6 expression in primary murine hepatocytes, as well as (I) TNFa and (J) IL-6 mRNA levels in primary bone marrow derived macrophages, both cell types were pre-cultured for two days in GF or GFS media, were compared between respective groups. Secretion of (K) TNFa and (L) IL-6 cytokines over the period of two days was measured by ELISA in the supernatant of bone marrow derived macrophages. LPS-induced (100 ng/ml) secretion of (M) TNFa 2 hrs after activation and (N) IL-6 6 hrs after activation in the respective media by macrophages was also measured by ELISA. Data represents mean+/−S.D., n=3)
Mouse bones were isolated from male wild-type and CARKL overexpressing mice and bone marrow wash flushed, washed and cleared from redblood cells by lysis, and subsequently differentiated in DMEM containing 25 mM glucose and 20 ng/ml M-CSF. After 4 days, cells for osteoclast differentiation were harvested and seeded in corning osteo assay plates with differentiation media (see below), and for primary bone marrow derived macrophages (BMDM) the medium was renewed and further supplemented with M-SCF for two days. Differentiated BMDM were then seeded in respective DMEM-media containing 10% FBS and indicated carbohydrate mixes at 3 g/L (glucose and fructose (GF), or glucose, fructose and sedoheptulose (GFS)) at least two days before experiments were performed.
(§1) Briefly, total RNA was extracted and reverse-transcribed using commercial kits (QIAGEN, Applied Biosystems). Quantitative real-time PCRs were performed on an AbiPRISM 7900HT real-time cycler using iTaq SYBR Green Supermix with ROX (BioRad) to measure CARKL, adiponectin, UCP-1, TNFa, IL-6, MCP-1, and beta-actin expression as previously described (Haschemi et al., Cell Metab. 15 (2012), 813-826). Expression of target gene was normalized to beta-actin expression. Relative expression of target gene was calculated by the delta-delta CT method.

WT hepatocytes = assay: Glucose-induced ECAR in hepatocytes; settings: WT hepatocytes in GFS vs GF media, 1 hr carbohydrate starvation, then glucose 1 g/L, FIG. 4E
Method: Hepatocytes were isolated from male wild-type and CARKL overexpressing mice after the mice were sacrificed by hepatic in situ collagenase perfusion. After perfusion, the liver was quickly removed, minced, and filtered through a cell strainer (Fisher Scientific, Inc) into a 50 ml sterile tube. Hepatocytes in the resulting filtrate were purified from the nonparenchymal cells by centrifugation steps. The isolated hepatocytes were seeded into plates at a concentration of 0.25×10^6/ml in respective DMEM-media containing 10% FBS and indicated carbohydrate mixes at 3 g/L (glucose and fructose (GF), or glucose, fructose and sedoheptulose (GFS)) at least two days before experiments were performed.
The XF-Analyzer (Seahorse Bio.) was used to measure changes in cellular metabolism induced by different carbohydrates. Extracellular acidification rates (ECAR, mpH/min) and oxygen consumption rates (OCR, pmoles/min) were recorded in primary human adipocytes and primary murine hepatocytes according to the manufacture instructions. Briefly, cells were seeded in seahorse cell plates at a density of 10^4 cells per well for adipocytes and 0.5×10^5 cells per well for hepatocytes. […] Changes induced by the different carbohydrate sources were expressed as relative change in % to illustrate the effect of each carbon source.

mature murine adipocytes = assay: Mature murine adipocytes ceiling culture, cytokine mRNA by RT-PCR; settings: three days in GFS vs GF media
Method: Anterior and posterior subcutaneous adipose tissue and epididymal white adipose tissue was isolated from transgenic CARKL-mice and wild-type littermate controls. Adipose tissue was digested as described above for the human sample. After centrifugation, the layer of floating mature adipocytes was removed and re-centrifuged at 100 rcf for 10 minutes. 150 μL, of packed adipocytes were cultured under a floating coverslip in six-well plates, in DMEM/F12, 15% calf serum (PAA). 24 hours after isolation, the wells were washed twice with PBS and the medium was exchanged to DMEM/F12 with a total carbohydrate load of 3 g/L, containing 1.5 g/L glucose and fructose, or 1 g/L each of glucose, fructose and sedoheptulose, respectively. Three days later, the cells were harvested for RNA isolation using TRIreagent (Sigma).
as §1

O=C(CO)[C@@H](O)[C@H](O)[C@H](O)[C@H](O)CO [sedoheptulose, Sedoheptulose]
G6PD activity distribution (re-localization of G6PD, reduced activity in the inner space of the cells) [1]: same phenotype | reduction of LPS-induced TNFa secretion ([2]; 2 hrs after activation, FIG. 3M): approximately 40% | LPS-induced IL-6 secretion ([2]; 6 hrs after activation, FIG. 3N): comparable levels as GF treated macrophages | basal TNFa mRNA expression ([3]; pre-cultured two days in GFS vs GF media, FIG. 3I): blocked | basal IL-6 mRNA expression ([3]; pre-cultured two days in GFS vs GF media, FIG. 3J): blocked | basal TNFa cytokine secretion ([3]; supernatant over two days, ELISA, GFS vs GF media, FIG. 3K): blocked | basal IL-6 cytokine secretion ([3]; supernatant over two days, ELISA, GFS vs GF media, FIG. 3L): blocked | glucose-induced ECAR (WT hepatocytes): reduced | TNFa mRNA (mature murine adipocytes; FIG. 3F): less | IL-6 mRNA (mature murine adipocytes; FIG. 3G): less
